Reference: patent publication US7235584B2, “Non-psychotropic cannabinoids” (Pharmos Corporation, priority 2000, dated 2007)
Read-outs that look alike come from different tables or passages of the source.

Legend:
[1] = target: NMDA receptor; assay: [3H]MK-801 displacement radioligand binding, rat forebrain membranes
Procedure: The identification of possible recognition sites for PRS-211 analogs was carried out by measuring the ability of these PRS-211 analogs to inhibit the binding of MK-801 to rat forebrain membranes.
Brains were removed from Sprague-Dawley rats no more than 5 min after decapitation. Membrane preparations were isolated according to a procedure described previously (Eshhar et al., Brain Res. 476:57, 1989). Prior to radioligand binding measurements, endogenous glutamate present in membranes was removed from the preparation by subjecting the membranes to 3–4 successive washings in 10 mM Tris HCl pH 7.2, performed at 4° C.
The specific binding of the new analogs to NMDA receptors was determined by their ability to displace [^3H]MK-801 from NMDA receptor in rat forebrain preparations. Specifically, rat-forebrain membranes (0.1 mg) were incubated for 2 hours at room temperature with 10 nM of tritiated MK-801 and with the PRS-211 compounds at 3 doses each. Non-specific binding was determined by the use of 0.1 mM MK-801. Following the incubation, bound radioligand was separated from unbound by filtration through GF/B filters. The filters were counted in a β-counter and log of analog concentrations versus % of [^3H]MK-801 specific binding was plotted. The IC50 was calculated from this plot.
Binding of [^3H]MK-801 to membranes was carried out in the presence of 30 μM glycine and 10 μM L-glutamate. Membranes (250 μg protein) were resuspended in 50 mM tris-acetate pH 7.4 buffer and incubated with 10 nM [^3H]MK-801, either alone or in the presence of PRS-211 compounds at 0.1–100 μM concentrations for three hours at room temperature (RT). Reaction buffers used in the different radioligand binding studies contained 10% of an ethanol/Emulphor 620/deionized water mixture. The ratio (by volume) of the respective components in the mixture was 20/3/57. This mixture is required for solubilizing PRS-211 compounds at concentrations above 30 μM. Reaction volume was 1 ml. Non-specific [^3H]MK-801 binding was determined in the presence of 100 μM unlabeled MK-801.
Concentration dependence of certain PRS-211 analogs on inhibition of [^3H]MK-801 binding is illustrated in FIG. 1.

[2] = test system: T1, nitric oxide synthase (NOS); assay: Inhibition of nitric oxide synthase, fluorimetric nitrite assay in LPS-stimulated macrophage supernatants; format: cell-based; conditions: macrophage cell cultures
T1 construct: endogenous in cells
T1 sequence (P35228 whole entry): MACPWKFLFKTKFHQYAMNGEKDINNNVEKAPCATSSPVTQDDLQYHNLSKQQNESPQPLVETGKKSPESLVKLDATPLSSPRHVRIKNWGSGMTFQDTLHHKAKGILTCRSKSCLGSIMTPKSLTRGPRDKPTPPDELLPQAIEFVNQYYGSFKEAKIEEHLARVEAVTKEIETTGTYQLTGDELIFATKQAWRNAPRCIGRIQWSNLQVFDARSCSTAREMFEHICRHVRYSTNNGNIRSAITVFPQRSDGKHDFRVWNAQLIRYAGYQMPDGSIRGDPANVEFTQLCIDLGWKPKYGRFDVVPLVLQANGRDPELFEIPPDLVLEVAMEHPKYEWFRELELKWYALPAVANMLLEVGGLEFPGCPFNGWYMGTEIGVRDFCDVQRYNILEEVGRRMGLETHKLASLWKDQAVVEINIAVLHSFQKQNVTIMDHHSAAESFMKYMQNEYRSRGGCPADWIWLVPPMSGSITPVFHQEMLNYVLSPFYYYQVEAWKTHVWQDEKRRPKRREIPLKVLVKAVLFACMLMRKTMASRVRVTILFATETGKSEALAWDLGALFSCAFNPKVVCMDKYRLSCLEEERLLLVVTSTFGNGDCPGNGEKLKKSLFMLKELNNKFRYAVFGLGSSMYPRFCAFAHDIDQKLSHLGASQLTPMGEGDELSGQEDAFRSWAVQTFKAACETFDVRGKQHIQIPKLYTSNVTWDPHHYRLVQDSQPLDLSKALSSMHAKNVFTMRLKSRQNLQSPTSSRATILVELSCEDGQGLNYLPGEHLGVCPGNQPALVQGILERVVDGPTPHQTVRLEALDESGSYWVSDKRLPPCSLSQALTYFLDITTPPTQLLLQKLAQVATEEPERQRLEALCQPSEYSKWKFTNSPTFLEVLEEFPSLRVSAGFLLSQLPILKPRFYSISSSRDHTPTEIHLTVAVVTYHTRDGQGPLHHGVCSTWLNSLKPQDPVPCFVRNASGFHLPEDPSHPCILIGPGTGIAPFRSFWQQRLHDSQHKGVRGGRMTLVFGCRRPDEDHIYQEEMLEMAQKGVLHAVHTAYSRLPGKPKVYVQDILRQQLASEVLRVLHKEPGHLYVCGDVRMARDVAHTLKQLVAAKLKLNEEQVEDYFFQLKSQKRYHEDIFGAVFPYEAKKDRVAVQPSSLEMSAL
Procedure: As one aspect of the anti-oxidative potential of the novel analogs they were tested for their ability to inhibit the enzyme nitric oxide synthase (NOS). This assay can also serve as another indication of the anti-inflammatory cascade, as well as the anti-oxidative mechanisms.
The final products of NOS are Nitrite (NO2) and Nitrate (NO3). The in vitro fluorimetric assay provides an accurate method for the measurement of the Nitrite, which is the majority of NO products. The principle of the fluorimetric assay is based on the addition of DAN (2,3-diaminonaphthalene) to the aliquots of the supernatants collected from macrophage cell cultures incubated with the new analogs and stimulated with LPS. Following, NaOH was added to convert Nitrite to a fluorescent compound 1(H)-naphthtriazole. The fluorescence was measured immediately in a fluorimeter using excitation wavelength of 365 nm and an emission wavelength of 450 nm.

[3] = test system: transient MCAo in rats; assay: Transient middle cerebral artery occlusion (MCAo), infarct size evaluation; format: in vivo; conditions: transient MCAo
Excerpt: The middle cerebral artery is the cerebral blood vessel most susceptible to stroke in humans. In animals, coagulation, permanent ligation or permanent placement of an occluding thread ink the artery produces a permanent focal stroke affecting the MCA territory. Transient ligation or occlusion results in transient focal stroke. Both transient and permanent focal strokes result in varying degrees of edema and infarction in the affected brain regions. The ability of compounds to reduce the volumes of edema and infarction is considered a measure of their potential as anti-stroke treatment.
• a. Male rats (8/treatment group) 320–380 gr. (Harlan Israel). • b. Halothane (Rhone Poulenc France) • c. Pentobarbitone (Pental Veterinary, CTS Israel). • d. Poly-L-Lysine (Sigma, USA). • e. Silk suture material 3-0 and 4-0. • f. Nylon (Polyamid) suture material 3-0. Four cm pieces were cut and positioned in a solution of 1% Poly-L-Lysine for 1 minute and dried in an oven (60 ° C.) for 60 minutes. The tip of each piece was rounded under a flame. • g. Saline (Teva Medical). • h. Blank cremophor ethanol cosolvent (Pharmos). • i. Dexanabinol in cremophor ethanol cosolvent 50 mg/ml. (Both Dexanabinol and its vehicle were diluted in saline prior to drug administration. • j. Analogs PRS-211,092, PRS-211,095, PRS-211,128 PRS-211,132 and PRS-211,220 in cremophor ethanol cosolvent, 50 mg/ml. • k. The analogs were diluted in saline prior to drug administration. Methods Transient MCAo
a. Surgical details of the MCAO method used for testing dexanabinol analogs, are presented in Belayev, et al., (Belayev, Busto, Weizhao, and Ginsberg, Stroke 26:2313–2319, 1995) which is incorporated herein in its entirety by reference.
b. Two hours after the start of MCAo, the animals were reanesthetized with halothane, the neck wound was re-opened and the nylon thread pulled out of the Internal carotid artery (ICA). The skin wound was then closed with 3-0 silk suture material and the animals allowed to recover from the anesthesia.
c. Three sets of animals were tested. In the first test immediately (2+0 hours) before thread removal the animals were injected IV with either analogs PRS 211,095, PRS 211,128, PRS 211,132, or Dexanabinol (PRS 211,007) each at a dosage of 5 mg/kg. One group of animals was treated with 5mi/kg vehicle alone. In another group, the animals subjected to “sham” operation, the suture was passed into the ICA, as described above, but immediately withdrawn. […] Laser Doppler Flow (LDF) determined the success of MCAo—a drop of more then 50% in cerebral blood flow was considered as a sign of successful MCAO. […]
A detailed investigation of neurological performance was carried out on the first, third and the 7th day after the MCAo. […] Animals were scored according to their performance: […]

[4] = test system: tail flick model in mice; assay: Tail flick model: analgesic effect and tolerance to morphine; format: in vivo, ICR male mice
Excerpt: A mice model of acute pain, the tail flick model, was used to test the ability of compounds to prolong the analgesic activity of opioids, by preventing the development of tolerance, and their ability to reverse established tolerance.
The following animal model of acute pain was used to assess the potential analgesic effects of test compounds either alone or in combination with morphine. […] In this model the nociceptive stimulus is thermal and the latency time till the animal flicks its tail is monitored (Le Bars D., Gozariu M. & Cadden S. W., Pharmacol. Rev. 53: 597–652, 2001).
Hyperalgesia to radiant heat was assessed as follows. ICR male mice (20–30 g average body weight, Harlan, Israel) were injected with test compounds i.p. at the volume dose of 5 ml/kg. Each treatment group contained at least 6 animals. The test compounds were dissolved in Cremophor®:ethanol (70:30 weight/weight) and diluted 1:20 in saline prior to injection. Morphine HCl was directly dissolved in saline. Its vehicle was also included as control. Pain threshold was determined 30 minutes post-administration by measuring the foot-withdrawal latency defined as the time from the onset of radiant heat to foot withdrawal. The cut-off time was preset to 10 seconds in order to prevent tissue damage. […] Test compounds (5 mg/kg) and vehicle (5 ml/kg) were administered 15 minutes before morphine and pain threshold was determined 30 minutes after the first injection of morphine on day 1, 5, 8 and 10. […] Pain threshold was determined on day 1 and 10.
In each type of study, the animals were tested on given days 30 minutes after morphine injection in the tail flick apparatus (Socrel, model DS 20). Animals were gently held while their tails were located above the photoelectric cell. The tails were then illuminated (21V) at 2 cm from the distal tip and the latency time, measured in seconds, was recorded in duplicates. The results are expressed either as absolute latency time or as percent of animals that enjoyed significant analgesia as measured by the fact that their latency time is at least twice the latency time for vehicle treated animals. At the end of the study, the animals were euthanized by i.p. injection of 100 mg/kg sodium pentobarbitone.
The differences between the latency times among various treatment groups was analyzed by analysis of variance (ANOVA) followed by post-hoc Duncan test. The differences between the % of animals showing analgesia among various treatment groups was analyzed by analysis of variance (ANOVA) followed by post-hoc Fisher exact test. A value of p<0.05 is considered to be statistically significant.

[5] = test system: TNFα; assay: Inhibition of TNFα in LPS-activated macrophage cell cultures (ELISA); format: cell-based
Procedure: Specific aspects of the inflammatory response cascade are mediated by the cytokine TNFα. Inhibition of TNFα production and/or inhibition of TNFα release by the new analogs are assayed in macrophage cell cultures activated with LPS. This serves as another indication of the general anti-inflammatory potential of the novel compounds.
The method for macrophage cell culture growth is identical to the one described in PGE2 assay. Aliquots of the supernatants collected following stimulation with LPS were quantitated for TNFα by enzyme linked immunosorbent assay (ELISA) using HRP conjugated to anti-TNFα antibodies and […] for the colorimetric reaction. The peroxidase catalyzed color reaction was stopped by acidification and the absorbance at 450 nm is measured. The absorbance at this wavelength is proportional to the concentration of TNFα in the sample determined from a standard curve plotting the concentrations of TNFα standards versus their absorbance.

[6] = displacement of [3H]MK-801, rat forebrain membranes, read-out: NMDA BINDING IC50

| SMILES | IC50 [1, 6] | inhibition at 10 µM [2] | also measured |
| --- | --- | --- | --- |
| CCCCCCC(C)(C)c1cc(O)c2c(c1)OC(C)(C)[C@H]1CC=C(CN3CCNCC3)CC21 (stereo partly drawn) [211,133-000] | > 100 µM | – | – |
| CCCCCCC(C)(C)c1cc(O)c2c(c1)OC(C)(C)[C@H]1CC=C(C[S+](C)[O-])C[C@H]21 (stereo partly drawn) [211,041-000] | – | 72% | – |
| CCCCCCC(C)(C)c1cc(O)c2c(c1)OC(C)(C)[C@H]1CC=C(COCC(O)CO)C[C@H]21 (stereo partly drawn) [211,211-000] | – | 0% | – |
| CCCCCCC(C)(C)c1cc(O)c2c(c1)OC(C)(C)[C@H]1CC=C(CN3CCCCC3)C[C@H]21 [211,159-000] | > 20 µM | 27% | – |
| CCCCCCC(C)(C)c1cc(O)c2c(c1)OC(C)(C)[C@H]1CC=C(CN3CCN=C3SC)C[C@H]21 [211,204-000] | – | 85% | – |
| CCCCCCC(C)(C)c1cc(O)c2c(c1)OC(C)(C)[C@H]1CC=C(CN3CCCC3)C[C@H]21 [211,128-000] | > 20 µM | 27% | NMDA receptor binding / affinity (in words) [1]: no detectable affinity; IC50 ([1]; rat forebrain membranes, read-out: mean IC50 of [3H]MK-801 binding (FIG. 2)): > 20 µM; function, reduction of mortality and brain morphometry [3]: inactive |
| CCCCCCC(C)(C)c1cc(O)c2c(c1)OC(C)(C)[C@H]1CC=C(CN3CC=CC3)C[C@H]21 [211,212-000] | – | 0% | – |
| COc1ccc2c(c1)[C@]13CCCC[C@@H]1[C@H](C2)N(C)CC3 [dextromethorphan, reference compound] | – | – | reversal of established tolerance to morphine ([4]; in combination with morphine from day 11, tested day 12, 15, 17, PRS-211,220 5 mg/kg, dextromethorphan 20 mg/kg): statistically undistinguishable from morphine alone |
| CCCCCCC(C)(C)c1cc(O)c2c(c1)OC(C)(C)[C@H]1CC=C(CN(Cc3ccccc3)c3ccccc3)C[C@H]21 [211,255-000] | > 100 µM | 7% | NMDA receptor binding / affinity (in words) [1]: do not exhibit substantial NMDA receptor binding; inhibition at 10 µM [5]: 0% |
| CCCCCCC(C)(C)c1cc(O)c2c(c1)OC(C)(C)[C@H]1CC=C(CN3CCC(N4CCCC4)CC3)C[C@H]21 [211,253-000] | > 100 µM | 27% | NMDA receptor binding / affinity (in words) [1]: do not exhibit substantial NMDA receptor binding; inhibition at 10 µM [5]: 0% |
| CCCCCCC(C)(C)c1cc(O)c2c(c1)OC(C)(C)[C@H]1CC=C(CN3CC=CCC3)C[C@H]21 [211,145-000] | – | 60% | – |
| CCCCCCC(C)(C)c1cc(O)c2c(c1)OC(C)(C)[C@H]1CC=C(CN3CCNC(C)C3)CC21 (stereo partly drawn) [211,134-000] | > 100 µM | – | – |
| CN1CC[C@]23c4c5ccc(O)c4O[C@H]2[C@@H](O)C=C[C@H]3[C@H]1C5 [morphine, reference compound] | – | – | latency time ([4]; 5 mg/kg, plain analgesic study, 30 minutes post-administration): 7.5 s |
| CCCCCCC(C)(C)c1cc(O)c2c(c1)OC(C)(C)[C@H]1CC=C(CC#N)C[C@H]21 [211,006-000] | – | 19% | – |
| CCCCCCC(C)(C)c1cc(O)c2c(c1)OC(C)(C)[C@H]1CC=C(Cc3ccccc3)C[C@H]21 [211,119-000] | – | 0% | – |
| CCCCCCC(C)(C)c1cc(O)c2c(c1)OC(C)(C)[C@H]1CC=C(CN3CCOCC3)C[C@H]21 [211,132-000] | – | 40% | – |
